Test results as given in PubChem BioAssay AID2060620 (Molecular Pharmacology Branch, DTP, NCI, 2025).
Values belong to the molecule of their own block, whether it stands above or below them.

Tested on: 328373-195-R-J1-PDC complex spheroids, viability % test/control
Test: Anticancer human tumor 328373-195-R-J1-PDC patient-derived head and neck squamous carcinoma cell line growth inhibition [CLK]
Conditions: for IC50: curve of first compound; for viability, T/C: stronger effect = lower value
In short: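 Patient-derived tumor cells grown as complex spheroids with HUVEC endothelial cells and mesenchymal stem cells, treated with drug combinations. Concentrations descend in half-log steps from near clinical Cmax, or from 10 microM if Cmax unknown.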

[1] = second compound 0.0316 µM, first compound 0.0316 µM
[2] = second compound 0.0316 µM, first compound 0.1 µM
[3] = second compound 0.0316 µM, first compound 0.316 µM
[4] = second compound 0.0316 µM, first compound 1 µM
[5] = second compound 0.1 µM, first compound 0.0316 µM
[6] = second compound 0.1 µM, first compound 0.1 µM
[7] = second compound 0.1 µM, first compound 0.316 µM
[8] = second compound 0.1 µM, first compound 1 µM
[9] = second compound 0.316 µM, first compound 0.0316 µM
[10] = second compound 0.316 µM, first compound 0.1 µM
[11] = second compound 0.316 µM, first compound 0.316 µM
[12] = second compound 0.316 µM, first compound 1 µM
[13] = second compound 1 µM, first compound 0.0316 µM
[14] = second compound 1 µM, first compound 0.1 µM
[15] = second compound 1 µM, first compound 0.316 µM
[16] = second compound 1 µM, first compound 1 µM
[17] = second compound 3.16 µM, first compound 0.0316 µM
[18] = second compound 3.16 µM, first compound 0.1 µM
[19] = second compound 3.16 µM, first compound 0.316 µM
[20] = second compound 3.16 µM, first compound 1 µM
[21] = second compound 10 µM, first compound 0.0316 µM
[22] = second compound 10 µM, first compound 0.1 µM
[23] = second compound 10 µM, first compound 0.316 µM
[24] = second compound 10 µM, first compound 1 µM
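Note: spheroids exposed to the agents for 7 days.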

Compound: CCCS(=O)(=O)Nc1ccc(F)c(C(=O)c2c[nH]c3ncc(-c4ccc(Cl)cc4)cc23)c1F + CN1CCN(c2cc(C(=O)Nc3cc4cc(-c5cnn(C)c5)ccc4cn3)ccn2)CC1
IC50 (second compound 0.0316 µM): > 10 µM
IC50 (second compound 0.1 µM): > 10 µM
IC50 (second compound 0.316 µM): < 0.0316 µM
IC50 (second compound 1 µM): < 0.0316 µM
IC50 (second compound 3.16 µM): < 0.0316 µM
IC50 (second compound 10 µM): < 0.0316 µM
viability, T/C [1]: 102%
viability, T/C [2]: 91.4%
viability, T/C [3]: 109%
viability, T/C [4]: 100%
viability, T/C (second compound 0.0316 µM, first compound 3.16 µM): 101%
viability, T/C (second compound 0.0316 µM, first compound 10 µM): 81.6%
viability, T/C [5]: 78.8%
viability, T/C [6]: 82.2%
viability, T/C [7]: 83.7%
viability, T/C [8]: 86.6%
viability, T/C (second compound 0.1 µM, first compound 3.16 µM): 96.5%
viability, T/C (second compound 0.1 µM, first compound 10 µM): 81.7%
viability, T/C [9]: 35.8%
viability, T/C [10]: 38.5%
viability, T/C [11]: 34.8%
viability, T/C [12]: 40%
viability, T/C (second compound 0.316 µM, first compound 3.16 µM): 34.7%
viability, T/C (second compound 0.316 µM, first compound 10 µM): 28.9%
viability, T/C [13]: 2.19%
viability, T/C [14]: 1.09%
viability, T/C [15]: 2.63%
viability, T/C [16]: 2.9%
viability, T/C (second compound 1 µM, first compound 3.16 µM): 1.71%
viability, T/C (second compound 1 µM, first compound 10 µM): 0.31%
viability, T/C [17]: 0.65%
viability, T/C [18]: 1.41%
viability, T/C [19]: 2.96%
viability, T/C [20]: 1.01%
viability, T/C (second compound 3.16 µM, first compound 3.16 µM): 1.06%
viability, T/C (second compound 3.16 µM, first compound 10 µM): 0.14%
viability, T/C [21]: 1.51%
viability, T/C [22]: 3.41%
viability, T/C [23]: 0.81%
viability, T/C [24]: 2.54%
viability, T/C (second compound 10 µM, first compound 3.16 µM): 2.37%
viability, T/C (second compound 10 µM, first compound 10 µM): 0.63%

IC50 (second compound 0.0316 µM): 0.141 µM
IC50 (second compound 0.1 µM): < 0.00316 µM
IC50 (second compound 0.316 µM): < 0.00316 µM
IC50 (second compound 1 µM): < 0.00316 µM
IC50 (second compound 3.16 µM): < 0.00316 µM
IC50 (second compound 10 µM): < 0.00316 µM
Compound: COc1c(OCCCN2CCOCC2)ccc2c3n(c(=NC(=O)c4cnc(N)nc4)nc12)CCN3 + CNC(=O)c1ccc(Nc2nc(OC3CCCC3)c3c(-c4ccc5nc(C)oc5c4)c[nH]c3n2)c(OC)c1
viability, T/C (second compound 0.0316 µM, first compound 0.00316 µM): 68.3%
viability, T/C (second compound 0.0316 µM, first compound 0.01 µM): 67.3%
viability, T/C [1]: 68.2%
viability, T/C [2]: 60.7%
viability, T/C [3]: 24.9%
viability, T/C [4]: 8.91%
viability, T/C (second compound 0.1 µM, first compound 0.00316 µM): 10.9%
viability, T/C (second compound 0.1 µM, first compound 0.01 µM): 12.2%
viability, T/C [5]: 11.8%
viability, T/C [6]: 12.3%
viability, T/C [7]: 7.7%
viability, T/C [8]: 6.41%
viability, T/C (second compound 0.316 µM, first compound 0.00316 µM): 10.6%
viability, T/C (second compound 0.316 µM, first compound 0.01 µM): 11.2%
viability, T/C [9]: 10%
viability, T/C [10]: 9.38%
viability, T/C [11]: 6.22%
viability, T/C [12]: 5.91%
viability, T/C (second compound 1 µM, first compound 0.00316 µM): 9.61%
viability, T/C (second compound 1 µM, first compound 0.01 µM): 10.8%
viability, T/C [13]: 10.5%
viability, T/C [14]: 9.83%
viability, T/C [15]: 7.75%
viability, T/C [16]: 4.65%
viability, T/C (second compound 3.16 µM, first compound 0.00316 µM): 9.58%
viability, T/C (second compound 3.16 µM, first compound 0.01 µM): 11.5%
viability, T/C [17]: 10.6%
viability, T/C [18]: 9.71%
viability, T/C [19]: 8.29%
viability, T/C [20]: 7.29%
viability, T/C (second compound 10 µM, first compound 0.00316 µM): 12.8%
viability, T/C (second compound 10 µM, first compound 0.01 µM): 11%
viability, T/C [21]: 13.6%
viability, T/C [22]: 11.9%
viability, T/C [23]: 8.72%
viability, T/C [24]: 5.52%
